# According to patent US10689399B2, “Substituted 3,4,5,6,8,10,14,14a-octahydro-2h-2,6-methanopyrido[1′,2′:4,5]pyrazino[2,1-b][1,3]oxazocines and methods for treating viral infections” (Gilead Sciences, Inc., priority 2012, dated 2020):
# System: HIV-IIIb
# Assay: Antiviral assay in MT4 cells
# Type: cell-based
# Conditions: Human immunodeficiency virus 1, IIIB, MT4, 120 h, MT4 cells infected with HIV-IIIb, 5 days, CellTiter-Glo; read-out: EC50 nM in MT-4
# Description: For the antiviral assay utilizing MT4 cells, 0.4 μL of 189X test concentration of 3-fold serially diluted compound in DMSO was added to 40 μL of cell growth medium (RPMI 1640, 10% FBS, 1% penicilline/Streptomycine, 1% L-Glutamine, 1% HEPES) in each well of 384-well assay plates (10 concentrations) in quidruplicate.
# 1 mL aliquots of 2×10^6 MT4 cells are pre-infected for 1 and 3 hours respectively at 37° C. with 25 μL (MT4) or of either cell growth medium (mock-infected) or a fresh 1:250 dilution of an HIV-IIIb concentrated ABI stock (0.004 m.o.i. for MT4 cells). Infected and uninfected cells are diluted in cell growth medium and 35 μL of 2000 (for MT4) cells is added to each well of the assay plates.
# Assay plates were then incubated in a 37° C. incubator. After 5 days of incubation, 25 μL of 2× concentrated CellTiter-Glo™ Reagent (catalog # G7573, Promega Biosciences, Inc., Madison, Wis.) was added to each well of the assay plate. Cell lysis was carried out by incubating at room temperature for 2-3 minutes, and then chemiluminescence was read using the Envision reader (PerkinElmer).
row,Compound,EC50
1,"O=C(NCc1c(F)ccc(Cl)c1F)c1cn2c(c(O)c1=O)C(=O)N1[C@H]3CC[C@H](C3)[C@@H]1C2 [Compound 73, (1R,4S,12aR)—N-(3-chloro-2,6-difluorobenzyl)-7-hydroxy-6,8-dioxo-1,2,3,4,6,8,12,12a-octahydro-1,4-methanodipyrido[1,2-a:1′,2′-d]pyrazine-9-carboxamide]",1.8 nM
2,"O=C(NCc1cc(Cl)c(F)cc1F)c1cn2c(c(O)c1=O)C(=O)N1[C@H]3CC[C@H](C3)O[C@@H]1C2 [Compound 65, (2R,5 S,13aR)—N-(5-chloro-2,4-difluorobenzyl)-8-hydroxy-7,9-dioxo-2,3,4,5,7,9,13,13a-octahydro-2,5-methanopyrido[1′,2′: 4,5]pyrazino[2,1-b][1,3]oxazepine-10-carboxamide]",2.4 nM
3,"C[C@@H](NC(=O)c1cn2c(c(O)c1=O)C(=O)N1[C@@H]3CC[C@@H](C3)O[C@H]1C2)c1ccc(F)cc1F [Compound 11, (2S,5R,13aS)—N—((R)-1-(2,4-difluorophenyl)ethyl)-8-hydroxy-7,9-dioxo-2,3,4,5,7,9,13,13a-octahydro-2,5-methanopyrido[1′,2′: 4,5]pyrazino[2,1-b][1,3]oxazepine-10-carboxamide]",4.9 nM
4,"O=C(NCc1ccc(F)cc1F)c1cn2c(c(O)c1=O)C(=O)N1[C@@H]3COC[C@@H](C3)O[C@H]1C2 (racemic) [50/51, N-(2,4-difluorobenzyl)-9-hydroxy-8,10-dioxo-2,3,5,6,8,10,14,14a-octahydro-2,6-methanopyrido[1′,2′:4,5]pyrazino[2,1-b][1,6,3]dioxazocine-11-carboxamide]",1.9 nM
5,"O=C(NCc1c(F)cc(F)cc1F)c1cn2c(c(O)c1=O)C(=O)N1[C@H]3CC[C@H](CC3)[C@@H]1C2 [Compound 102, (1S,4S,12aR)-7-hydroxy-6,8-dioxo-N-(2,4,6-trifluorobenzyl)-1,2,3,4,6,8,12,12a-octahydro-1,4-ethanodipyrido[1,2-a:1′,2′-d]pyrazine-9-carboxamide]",2.3 nM
6,"O=C(NCc1cc(F)c(F)cc1F)c1cn2c(c(O)c1=O)C(=O)N1[C@H]3CC[C@H](C3)[C@@H]1C2 [Compound 79, (1R,4S,12aR)-7-hydroxy-6,8-dioxo-N-(2,4,5-trifluorobenzyl)-1,2,3,4,6,8,12,12a-octahydro-1,4-methanodipyrido[1,2-a:1′,2′-d]pyrazine-9-carboxamide]",3.4 nM
7,"O=C(NCc1ccc(F)cc1Cl)c1cn2c(c(O)c1=O)C(=O)N1[C@H]3CC[C@H](C3)[C@@H]1C2 [Compound 68, (1R,4S,12aR)—N-(2-chloro-4-fluorobenzyl)-7-hydroxy-6,8-dioxo-1,2,3,4,6,8,12,12a-octahydro-1,4-methanodipyrido[1,2-a:1′,2′-d]pyrazine-9-carboxamide]",2.7 nM
8,"O=C(NC1(c2ccc(F)cc2F)CC1)c1cn2c(c(O)c1=O)C(=O)N1C(C2)O[C@@H]2CC[C@H]1C2 (stereo partly drawn) [Compound 31, (2R,5S)—N-(1-(2,4-difluorophenyl)cyclopropyl)-8-hydroxy-7,9-dioxo-2,3,4,5,7,9,13,13a-octahydro-2,5-methanopyrido[1′,2′:4,5]pyrazino[2,1-b][1,3]oxazepine-10-carboxamide]",9 nM
9,"O=C(NCc1ccccc1F)c1cn2c(c(O)c1=O)C(=O)N1[C@@H]3CC[C@@H](C3)O[C@H]1C2 [Compound 23, (2 S,5R,13aS)—N-(2-fluorobenzyl)-8-hydroxy-7,9-dioxo-2,3,4,5,7,9,13,13a-octahydro-2,5-methanopyrido[1′,2′:4,5]pyrazino[2,1-b][1,3]oxazepine-10-carboxamide]",2.3 nM
10,"O=C(NCc1c(F)cc(F)cc1F)c1cn2c(c(O)c1=O)C(=O)N1[C@H]3CCC[C@H](C3)[C@H]1C2 [Compound 85, (6 aS,7R,11S)-1-hydroxy-2,13-dioxo-N-(2,4,6-trifluorobenzyl)-6,6a,7,8,9,10,11,13-octahydro-2H-7,11-methanopyrido[1′,2′: 4,5]pyrazino[1,2-a]azepine-3-carboxamide]",2 nM
11,"O=C(NCc1c(F)cc(F)cc1F)c1cn2c(c(O)c1=O)C(=O)N1[C@H]3CC[C@H](CC3)[C@H]1C2 [Compound 101, (1R,4R,12aS)-7-hydroxy-6,8-dioxo-N-(2,4,6-trifluorobenzyl)-1,2,3,4,6,8,12,12a-octahydro-1,4-ethanodipyrido[1,2-a:1′,2′-d]pyrazine-9-carboxamide]",2.1 nM
12,"O=C(NCc1c(F)cc(F)cc1F)c1cn2c(c(O)c1=O)C(=O)N1[C@@H]3C[C@@H](C(F)C3F)[C@@H]1C2 (stereo partly drawn) [Compound 103, (1R,4R,12aR)-2,3-difluoro-7-hydroxy-6,8-dioxo-N-(2,4,6-trifluorobenzyl)-1,2,3,4,6,8,12,12a-octahydro-1,4-methanodipyrido[1,2-a:1′,2′-d]pyrazine-9-carboxamide]",10.3 nM
13,"O=C(NCc1c(F)cc(F)cc1F)c1cn2c(c(O)c1=O)C(=O)N1[C@H]3CC[C@H](C3)O[C@@H]1C2 [Compound 42, (2R,5S,13aR)-8-hydroxy-7,9-dioxo-N-(2,4,6-trifluorobenzyl)-2,3,4,5,7,9,13,13a-octahydro-2,5-methanopyrido[1′,2′:4,5]pyrazino[2,1-b][1,3]oxazepine-10-carboxamide]",2.5 nM
14,"O=C(NCc1c(F)cc(F)cc1F)c1cn2c(c(O)c1=O)C(=O)N1[C@@H](C2)[C@H]2C[C@@H]1C(F)(F)C2 [Compound 98, (1S,4R,12aR)-3,3-difluoro-7-hydroxy-6,8-dioxo-N-(2,4,6-trifluorobenzyl)-1,2,3,4,6,8,12,12a-octahydro-1,4-methanodipyrido[1,2-a:1′,2′-d]pyrazine-9-carboxamide]",2.4 nM
15,"O=C(NCc1ccc(F)c(Cl)c1F)c1cn2c(c(O)c1=O)C(=O)N1[C@@H]3C[C@H]([C@@H]1C2)C(F)(F)C3 [Compound 58, (1R,4R,12aR)—N-(3-chloro-2,4-difluorobenzyl)-2,2-difluoro-7-hydroxy-6,8-dioxo-1,2,3,4,6,8,12,12a-octahydro-1,4-methanodipyrido[1,2-a:1′,2′-d]pyrazine-9-carboxamide]",1.5 nM
16,"C[C@@H](NC(=O)c1cn2c(c(O)c1=O)C(=O)N1[C@H]3CC[C@H](C3)[C@@H]1C2)c1ccc(F)cc1F [Compound 43, (12aR)—N—((R)-1-(2,4-difluorophenyl)ethyl)-7-hydroxy-6,8-dioxo-1,2,3,4,6,8,12,12a-octahydro-1,4-methanodipyrido[1,2-a:1′,2′-d]pyrazine-9-carboxamide]",6.9 nM
17,"O=C(NCc1cc(F)c(F)cc1F)c1cn2c(c(O)c1=O)C(=O)N1[C@H]3CC[C@H](C3)O[C@@H]1C2 [Compound 64, (2R,5S,13aR)-8-hydroxy-7,9-dioxo-N-(2,4,5-trifluorobenzyl)-2,3,4,5,7,9,13,13a-octahydro-2,5-methanopyrido[1′,2′:4,5]pyrazino[2,1-b][1,3]oxazepine-10-carboxamide]",3.5 nM
18,"O=C(NCc1ccc(F)c(F)c1F)c1cn2c(c(O)c1=O)C(=O)N1[C@H]3CC[C@H](C3)[C@@H]1C2 [Compound 91, (1R,4S,12aR)-7-hydroxy-6,8-dioxo-N-(2,3,4-trifluorobenzyl)-1,2,3,4,6,8,12,12a-octahydro-1,4-methanodipyrido[1,2-a:1′,2′-d]pyrazine-9-carboxamide]",5 nM
19,"Cc1cccc(CNC(=O)c2cn3c(c(O)c2=O)C(=O)N2[C@H]4CC[C@H](C4)[C@@H]2C3)c1F [Compound 70, (1R,4S,12aR)—N-(2-fluoro-3-methylbenzyl)-7-hydroxy-6,8-dioxo-1,2,3,4,6,8,12,12a-octahydro-1,4-methanodipyrido[1,2-a:1′,2′-d]pyrazine-9-carboxamide]",5.1 nM
20,"O=C(NCc1ccc(Cl)cc1F)c1cn2c(c(O)c1=O)C(=O)N1[C@@H]3CC[C@@H](C3)O[C@H]1C2 [Compound 17, (2 S,5R,13aS)—N-(4-chloro-2-fluorobenzyl)-8-hydroxy-7,9-dioxo-2,3,4,5,7,9,13,13a-octahydro-2,5-methanopyrido[1′,2′:4,5]pyrazino[2,1-b][1,3]oxazepine-10-carboxamide]",5.9 nM
21,"O=C(NCc1cccc(Cl)c1F)c1cn2c(c(O)c1=O)C(=O)N1[C@H]3CC[C@H](C3)[C@@H]1C2 [Compound 90, (1R,4S,12aR)—N-(3-chloro-2-fluorobenzyl)-7-hydroxy-6,8-dioxo-1,2,3,4,6,8,12,12a-octahydro-1,4-methanodipyrido[1,2-a:1′,2′-d]pyrazine-9-carboxamide]",5.7 nM
22,"O=C(NCc1c(F)cc(F)cc1F)c1cn2c(c(O)c1=O)C(=O)N1[C@H](C2)[C@H]2C[C@H](F)[C@@H]1C2 [Compound 81, (1R,3S,4S,12aS)-3-fluoro-7-hydroxy-6,8-dioxo-N-(2,4,6-trifluorobenzyl)-1,2,3,4,6,8,12,12a-octahydro-1,4-methanodipyrido[1,2-a:1′,2′-d]pyrazine-9-carboxamide]",1.9 nM

# Same assay, conditions: Human immunodeficiency virus 1, IIIB, MT4, 120 h, read-out: EC50 nM in MT-4, MT4 cells infected with HIV-IIIb, 5 days, CellTiter-Glo
row,Compound,EC50
1,"O=C(NC1(c2ccc(F)cc2F)CCCCC1)c1cn2c(c(O)c1=O)C(=O)N1C(C2)O[C@H]2CC[C@@H]1C2 (stereo partly drawn) [Compound 34, (2S,5R)—N-(1-(2,4-difluorophenyl)cyclohexyl)-8-hydroxy-7,9-dioxo-2,3,4,5,7,9,13,13a-octahydro-2,5-methanopyrido[1′,2′: 4,5]pyrazino[2,1-b][1,3]oxazepine-10-carboxamide]",422 nM
